{
  "source": "patent US12496320B2",
  "about": "“Lactobacillus sp. strain and use thereof” (LG HOUSEHOLD & HEALTH CARE LTD., priority 2020, dated 2025)",
  "format_in_all_cases": "cell-based",
  "key": {"[1]": {"system": "MNT-1 melanoma cells", "experiment": "Melanin production inhibitory ability", "conditions": "200 μg/mL, 72 hours", "description": "The melanin production inhibitory ability (brightening) of the Lactobacillus pentosus […]-1 strain of the present invention was investigated. Specifically, MNT-1 melanoma cells were prepared by adding 10% FBS to DMEM (Dulbecco's Modified Eagle's Medium) as a basal medium. Then, the MNT-1 melanoma cells were seeded in a 6-well plate at a concentration of 1 to 2×10^5 cells/mL and cultured for 24 hours. Subsequently, the strain of the present invention was treated, and the cells were cultured for 72 hours and then recovered. Then, after centrifugation at 13,000 rpm for 1 minute and removal of the supernatant, 300 μL of a 0.5% Triton X-100 solution was added to the pellet to lyse the cells. Thereafter, centrifugation was performed at 13,000 rpm for 3 minutes, and the pellet and supernatant were recovered. Then, 100 μL of 0.5N NaOH was added to the pellet, and the cells were incubated overnight to dissolve melanin, and then the absorbance at 450 nm was measured using an ELISA reader."}, "[2]": {"system": "raw 264.7 mouse macrophages", "experiment": "Nitric oxide production inhibitory ability, GRIESS method, LPS stimulated", "conditions": "100 uM, 500 ng/mL LPS", "description": "The NO production inhibitory ability of the Lactobacillus pentosus NIFSLG-1 strain of the present invention was investigated. Specifically, the nitric oxide (NO) production ability in raw 264.7 mouse macrophages was evaluated for anti-inflammatory efficacy using the GRIESS method. First, the Raw 264.7 cells (2×10^5 cells/well) were dispensed into a 24-well culture plate, cultured in a DMEM medium containing 10% FBS (fetal bovine serum) for 24 hours, and then cultured in a medium without FBS for 12 hours. Subsequently, […] and pretreated for 30 minutes, and added to the cells with LPS (lipopolysaccharide) to a final concentration of 500 ng/ml, and then cultured for 18 hours.\nThereafter, the supernatant was recovered, and the GRIESS reagent was added, followed by reacting at room temperature for 15 minutes, and the absorbance was measured at 540 nm to evaluate the relative NO production and production inhibitory ability."}, "[3]": {"system": "skin fibroblasts", "experiment": "Collagen synthesis effect, ELISA", "conditions": "concentration 100 (unit not given), 24 hours", "description": "The efficacy of collagen synthesis was investigated for the Lactobacillus pentosus […]-1 strain of the present invention. Specifically, after primary culture of skin fibroblasts, DMEM (Dulbecco's Modified Eagle's Medium) with an addition of 10% FBS was used as a basal medium for the skin fibroblasts. Then, the skin fibroblasts were seeded in a 48-well plate at a concentration of 2 to 5×10^4 cells/mL and cultured for 24 hours. Subsequently, the growth medium was removed, and a medium containing the strain of the present invention (without FBS added) was added, and the cells were cultured for 24 hours, and thereafter the cell culture solution was taken and subjected to ELISA analysis."}},
  "data": [
    {"compound": "OC[C@H]1O[C@@H](Oc2ccc(O)cc2)[C@H](O)[C@@H](O)[C@@H]1O", "note": "[Arbutin]", "values": [
      {"measurement": "Melanin content (% control)", "setting": "[1]", "value": 74.37, "unit": "% control"}
    ]},
    {"compound": "CNC(=N)NCCC[C@H](N)C(=O)O", "note": "[L-NMMA]", "values": [
      {"measurement": "Inhibition Rate (% control) of NO production", "setting": "[2]", "value": 81.2, "unit": "% control"}
    ]},
    {"compound": "O=C1O[C@H]([C@@H](O)CO)C(O)=C1O", "note": "[Vita C]", "values": [
      {"measurement": "Collagen (% control)", "setting": "[3]", "value": 161.91, "unit": "% control"}
    ]}
  ]
}
